Assay results from ChEMBL document CHEMBL1201862, “PubChem BioAssay data set” (2004).
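The compound was tested at five concentrations on cells cultured in 96-well plates, with a 48-hour exposure period. At the GI50, growth is halved.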 Calls of active or inactive are those of the source. Rule as the data show it: active = GI50 up to about 1.1 µM and inactive = higher.

Tests used:
Test in all cases: growth of human tumour cells (NCI), 48 h
OVCAR-3 = system: OVCAR-3
TK-10 = system: TK-10
RPMI-8226 = system: RPMI-8226
SF-295 = system: SF-295
EKVX = system: EKVX
SR = system: SR
KM12 = system: KM12
SF-539 = system: SF-539
DLD-1 = system: DLD-1
COLO 205 = system: COLO 205
NCI-H226 = system: NCI-H226
SK-OV-3 = system: SK-OV-3
HCT-116 = system: HCT-116
SK-MEL-5 = system: SK-MEL-5
M14 = system: M14
CCRF-CEM = system: CCRF-CEM
HCC 2998 = system: HCC 2998
NCI-H460 = system: NCI-H460
SN12C = system: SN12C
SNB-75 = system: SNB-75
SW-620 = system: SW-620
CAKI-1 = system: CAKI-1
M19-MEL = system: M19-MEL
SNB-19 = system: SNB-19
SNB-78 = system: SNB-78
U-251 = system: U-251
DMS-114 = system: DMS-114
IGROV-1 = system: IGROV-1
LOX IMVI = system: LOX IMVI
NCI-H522 = system: NCI-H522
HOP-18 = system: HOP-18
KM-20L2 = system: KM-20L2
RXF 393 = system: RXF 393
HOP-62 = system: HOP-62
SF-268 = system: SF-268
A549 = system: A549
K562 = system: K562
Malme-3M = system: Malme-3M
HT-29 = system: HT-29
OVCAR-8 = system: OVCAR-8
MOLT-4 = system: MOLT-4
UO-31 = system: UO-31
LXFL 529 = system: LXFL 529
SK-MEL-28 = system: SK-MEL-28
HOP-92 = system: HOP-92
UACC-257 = system: UACC-257
UACC-62 = system: UACC-62
786-0 = system: 786-0
HL-60 = system: HL-60
OVCAR-4 = system: OVCAR-4
NCI-H23 = system: NCI-H23
OVCAR-5 = system: OVCAR-5
HCT-15 = system: HCT-15
ACHN = system: ACHN
SK-MEL-2 = system: SK-MEL-2
A498 = system: A498

CCOc1cc2cnc3c4cc(OC)c(OC)cc4ccc3c2cc1OC
GI50 (OVCAR-3): 29.9 µM (inactive)
GI50 (TK-10): > 100 µM (inactive)
GI50 (RPMI-8226): > 100 µM (inactive)
GI50 (SF-295): 26.4 µM (inactive)
GI50 (EKVX): > 100 µM (inactive)
GI50 (SR): 27.3 µM (inactive)
GI50 (KM12): 46.9 µM (inactive)
GI50 (SF-539): > 100 µM (inactive)
GI50 (DLD-1): > 100 µM (inactive)
GI50 (COLO 205): 4.92 µM (inactive)
GI50 (NCI-H226): > 100 µM (inactive)
GI50 (SK-OV-3): > 100 µM (inactive)
GI50 (HCT-116): > 100 µM (inactive)
GI50 (SK-MEL-5): > 100 µM (inactive)
GI50 (M14): > 100 µM (inactive)
GI50 (CCRF-CEM): 23.8 µM (inactive)
GI50 (HCC 2998): > 100 µM (inactive)
GI50 (NCI-H460): > 100 µM (inactive)
GI50 (SN12C): 30 µM (inactive)
GI50 (SNB-75): > 100 µM (inactive)
GI50 (SW-620): > 100 µM (inactive)
GI50 (CAKI-1): > 100 µM (inactive)
GI50 (M19-MEL): 39.8 µM (inactive)
GI50 (SNB-19): 19.4 µM (inactive)
GI50 (SNB-78): > 100 µM (inactive)
GI50 (U-251): 6.4 µM (inactive)
GI50 (DMS-114): 7.1 µM (inactive)
GI50 (IGROV-1): > 100 µM (inactive)
GI50 (LOX IMVI): 65 µM (inactive)
GI50 (NCI-H522): 15.2 µM (inactive)
GI50 (HOP-18): 16.9 µM (inactive)
GI50 (KM-20L2): > 100 µM (inactive)
GI50 (RXF 393): > 100 µM (inactive)
GI50 (HOP-62): > 100 µM (inactive)
GI50 (SF-268): 37.3 µM (inactive)
GI50 (A549): > 100 µM (inactive)
GI50 (K562): 20.7 µM (inactive)
GI50 (Malme-3M): 90.4 µM (inactive)
GI50 (HT-29): > 100 µM (inactive)
GI50 (OVCAR-8): 43.4 µM (inactive)
GI50 (MOLT-4): 49.8 µM (inactive)
GI50 (UO-31): > 100 µM (inactive)
GI50 (LXFL 529): 9.02 µM (inactive)
GI50 (SK-MEL-28): > 100 µM (inactive)
GI50 (HOP-92): > 100 µM (inactive)
GI50 (UACC-257): > 100 µM (inactive)
GI50 (UACC-62): > 100 µM (inactive)
GI50 (786-0): > 100 µM (inactive)
GI50 (HL-60): 40.2 µM (inactive)
GI50 (OVCAR-4): 86.7 µM (inactive)
GI50 (NCI-H23): > 100 µM (inactive)
GI50 (OVCAR-5): > 100 µM (inactive)
GI50 (HCT-15): > 100 µM
GI50 (ACHN): > 100 µM (inactive)
GI50 (SK-MEL-2): 69 µM (inactive)

CC1=N/C(=C\c2cccc([N+](=O)[O-])c2)C(=O)O1
GI50 (TK-10): > 100 µM (inactive)
GI50 (RPMI-8226): > 100 µM (inactive)
GI50 (SF-295): > 100 µM (inactive)
GI50 (EKVX): > 100 µM (inactive)
GI50 (KM12): > 100 µM (inactive)
GI50 (SF-539): > 100 µM (inactive)
GI50 (DLD-1): > 100 µM (inactive)
GI50 (A498): > 100 µM (inactive)
GI50 (COLO 205): > 100 µM (inactive)
GI50 (HCT-116): > 100 µM (inactive)
GI50 (SK-MEL-5): > 100 µM (inactive)
GI50 (M14): > 100 µM (inactive)
GI50 (CCRF-CEM): > 100 µM (inactive)
GI50 (HCC 2998): > 100 µM (inactive)
GI50 (NCI-H460): > 100 µM (inactive)
GI50 (SN12C): > 100 µM (inactive)
GI50 (SNB-75): 15.1 µM (inactive)
GI50 (SW-620): > 100 µM (inactive)
GI50 (M19-MEL): > 100 µM (inactive)
GI50 (SNB-19): > 100 µM (inactive)
GI50 (SNB-78): 86.1 µM (inactive)
GI50 (U-251): > 100 µM (inactive)
GI50 (DMS-114): > 100 µM (inactive)
GI50 (IGROV-1): > 100 µM (inactive)
GI50 (NCI-H522): > 100 µM (inactive)
GI50 (HOP-18): > 100 µM (inactive)
GI50 (KM-20L2): > 100 µM (inactive)
GI50 (RXF 393): > 100 µM (inactive)
GI50 (HOP-62): > 100 µM (inactive)
GI50 (SF-268): > 100 µM (inactive)
GI50 (A549): > 100 µM (inactive)
GI50 (K562): > 100 µM (inactive)
GI50 (Malme-3M): > 100 µM (inactive)
GI50 (HT-29): > 100 µM (inactive)
GI50 (OVCAR-8): > 100 µM (inactive)
GI50 (MOLT-4): > 100 µM (inactive)
GI50 (UO-31): > 100 µM (inactive)
GI50 (LXFL 529): > 100 µM (inactive)
GI50 (SK-MEL-28): > 100 µM (inactive)
GI50 (HOP-92): > 100 µM (inactive)
GI50 (UACC-257): > 100 µM (inactive)
GI50 (UACC-62): > 100 µM (inactive)
GI50 (786-0): > 100 µM (inactive)
GI50 (HL-60): > 100 µM (inactive)
GI50 (NCI-H23): > 100 µM (inactive)
GI50 (OVCAR-5): > 100 µM (inactive)
GI50 (HCT-15): > 100 µM
GI50 (ACHN): > 100 µM (inactive)
GI50 (SK-MEL-2): > 100 µM (inactive)
